Measured values: EP4596548A1, “NURR1 MODULATORS” (Ludwig-Maximilians-Universität, priority 2024, dated 2025)
Where “and” joins values, the source holds several entries; their conditions need not be identical. Equal values may be shown once.

Legend:
Nurr1 [1] = target: T1, Nurr1 (Homo sapiens, UniProt P43354); experiment: Gal4-Nurr1 hybrid reporter gene assay in HEK293T cells; type: cell-based; set-up: expressed in transfected cells; host or cells: HEK293T; conditions: for EC50(Nurr1) (max. activation): result in words; for max. activation: maximum effect vs. 0.1% DMSO control; for max. activation / EC50: mean±SD, n≥3; for EC50: Gal4-Nurr1 hybrid reporter gene assay
Experimental: Hybrid reporter gene assays. Nurr1 modulation was determined in a Gal4 hybrid reporter gene assay in HEK293T cells (German Collection of Microorganisms and Cell Culture GmbH, DSMZ) using pFR-Luc (Stratagene, La Jolla, CA, USA; reporter), pRL-SV40 (Promega, Madison, WI, USA; internal control) and pFA-CMV-hNurr1-LBD^14, coding for the hinge region and ligand binding domain of the canonical isoform of human Nurr1. […] After 24 h, medium was changed to Opti-MEM without supplements and cells were transiently transfected using Lipofectamine LTX reagent (Invitrogen, Carlsbad, CA, USA) according to the manufacturer's protocol. Five hours after transfection, cells were incubated with the test compounds in Opti-MEM supplemented with penicillin (100 U/mL), streptomycin (100 µg/mL) and 0.1% DMSO for 16 h before luciferase activity was measured using the Dual-Glo Luciferase Assay System (Promega) according to the manufacturer's protocol on a Tecan Spark luminometer (Tecan Deutschland GmbH, Crailsheim, Germany). Firefly luminescence was divided by Renilla luminescence and multiplied by 1000 resulting in relative light units (RLU) to normalize for transfection efficiency and cell growth. Fold activation was obtained by dividing the mean RLU of test compound by the mean RLU of the untreated control. All samples were tested in at least three biologically independent experiments in duplicates. For dose-response curve fitting and calculation of EC50 values, the equation "[Agonist] vs. response -- Variable slope (four parameters)" was used in GraphPad Prism (version 7.00, GraphPad Software, La Jolla, CA, USA). Selectivity profiling was performed with identical procedures using pFA-CMV-Nur77-LBD^14, pFA-CMV-NOR-1-LBD^14, pFA-CMV-THRα-LBD^39, pFA-CMV-RARα-LBD^40, pFA-CMV-PPARα-LBD^41, pFA-CMV-PPARγ-LBD^41, pFA-CMV-PPARδ-LBD^41, pFA-CMV-LXRα-LBD^37, pFA-CMV-FXR-LBD^42 and pFA-CMV-hRXRα-LBD^43.
Target sequence in this assay (P43354 360-595 limits assumed): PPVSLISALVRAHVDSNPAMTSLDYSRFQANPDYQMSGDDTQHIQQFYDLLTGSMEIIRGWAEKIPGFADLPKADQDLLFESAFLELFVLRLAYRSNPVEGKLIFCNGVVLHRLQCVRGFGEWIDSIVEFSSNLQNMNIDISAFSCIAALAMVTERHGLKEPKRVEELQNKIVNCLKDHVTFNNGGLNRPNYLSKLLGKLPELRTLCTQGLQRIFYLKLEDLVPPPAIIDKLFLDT

Nurr1 LBD = target: T2, Nurr1 LBD (Homo sapiens, UniProt P43354); experiment: Isothermal titration calorimetry (ITC); type: binding; conditions: ITC at 25°C
T2 construct: Nurr1 LBD protein (10-30 µM, expressed as described previously^21); made in house
Experimental: Isothermal Titration Calorimetry (ITC). ITC experiments were conducted on an Affinity ITC instrument (TA Instruments, New Castle, DE) at 25°C with a stirring rate of 75 rpm. Nurr1 LBD protein (10-30 µM, expressed as described previously^21) in buffer (20 mM Tris pH 7.5, 100 mM NaCl, 5% glycerol) containing 1-4% DMSO was titrated with the test compounds (60-150 µM in the same buffer containing 1-4% DMSO) in 26 injections (1x 1 µL, 25x 3-4 µL) with an injection interval of 150 s. As control experiments, the test compounds were titrated to the buffer, and the buffer was titrated to the Nurr1 LBD protein under otherwise identical conditions. Results were analyzed using NanoAnalyze software (version 3.11.0, TA Instruments, New Castle, DE) with independent binding models.

Nurr1 [2] = target: T1, Nurr1; experiment: Ligand efficiency metrics; conditions: computed according to ref. 29
Target sequence in this assay (P43354 whole entry, the tested form may be a part, canonical isoform): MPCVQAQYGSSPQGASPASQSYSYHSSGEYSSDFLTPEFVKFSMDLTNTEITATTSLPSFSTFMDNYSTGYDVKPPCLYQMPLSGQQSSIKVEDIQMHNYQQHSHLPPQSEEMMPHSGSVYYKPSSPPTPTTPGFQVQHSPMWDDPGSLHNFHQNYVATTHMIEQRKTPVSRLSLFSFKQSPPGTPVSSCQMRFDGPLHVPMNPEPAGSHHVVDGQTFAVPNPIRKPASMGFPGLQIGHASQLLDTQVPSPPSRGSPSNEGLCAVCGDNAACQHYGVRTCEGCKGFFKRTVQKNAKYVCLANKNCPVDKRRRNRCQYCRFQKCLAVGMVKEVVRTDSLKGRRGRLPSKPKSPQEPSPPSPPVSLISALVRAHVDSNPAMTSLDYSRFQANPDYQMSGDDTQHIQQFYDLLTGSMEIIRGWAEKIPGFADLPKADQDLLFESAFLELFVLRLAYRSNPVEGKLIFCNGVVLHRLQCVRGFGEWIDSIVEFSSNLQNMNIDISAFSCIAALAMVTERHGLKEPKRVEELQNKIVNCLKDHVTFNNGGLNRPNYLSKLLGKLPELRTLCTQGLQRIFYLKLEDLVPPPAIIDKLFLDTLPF

T2 sequence (P43354 360-595 limits assumed): as the sequence (P43354 360-595 limits assumed) above

## Cc1nc2cc(Cl)ccn2c1N [Compound 9]
Nurr1 [1]; at 100 µM
  EC50(Nurr1) (max. activation): inactive (100 µM)

## Nc1c(-c2ccc(C(F)(F)F)cc2)nc2c(Cl)cccn12 [Compound 22]
Nurr1 [1]
  max. activation: < 1.2-fold act.

## Cc1nc2c(Cl)cccn2c1NC(=O)c1ccc(-c2ccccc2)cc1 [Compound 30]
Nurr1 [1]; at 10 µM
  EC50(Nurr1) (max. activation): inactive (10 µM)

## Cc1nc2c(Cl)cccn2c1NC(=O)c1ccc(-c2ccc(OC(F)(F)F)cc2)o1 [Compound 33]
Nurr1 [1]
  EC50: 0.8 ± 0.2 µM

## Cc1nc2ccccn2c1N [Compound 13]
Nurr1 [1]; at 100 µM
  EC50(Nurr1) (max. activation): inactive (100 µM)

## Clc1cccn2ccnc12 [Compound 11]
Nurr1 [1]; at 100 µM
  EC50(Nurr1) (max. activation): inactive (100 µM)

## Nc1c(-c2ccccc2Cl)nc2c(Cl)cccn12 [Compound 19]
Nurr1 [1]; at 100 µM
  EC50(Nurr1) (max. activation): inactive (100 µM)

## Nc1c(-c2ccc(Cl)c(Cl)c2)nc2c(Cl)cccn12 [Compound 24, 8-Chloro-2-(3,4-dichlorophenyl)imidazo[1,2-a]pyridine-3-amine]
Nurr1 LBD
  Kd: 0.7 µM
Nurr1 [1]
  increase in potency over 8: 7 fold
  EC50: 0.4 µM
  max. activation: 1.8 fold and 1.8±0.1 fold

## Nc1c(-c2ccc(Cl)cc2)nc2c(Cl)cccn12 [Compound 17]
Nurr1 [1]
  EC50: 15 ± 3 µM
  max. activation: 1.7±0.2 fold

## Cc1nc2c(Cl)cccn2c1N [Compound 8, 8-Chloro-2-methylimidazo[1,2-a]pyridine-3-amine]
Nurr1 LBD
  Kd: 2.7 µM
Nurr1 [2]
  ligand efficiency (LE): 0.59
  lipophilic ligand efficiency (LLE): 3.28
  size-independent ligand eff. (SILE): 2.45
Nurr1 [1]
  EC50: 7 ± 1 µM
  max. activation: 2.0±0.1 fold

## Nc1cnc2ccccn12 [Compound 10]
Nurr1 [1]; at 100 µM
  EC50(Nurr1) (max. activation): inactive (100 µM)

## Cc1cccc(-c2nc3c(Cl)cccn3c2N)c1 [Compound 21]
Nurr1 [1]
  max. activation: < 1.2-fold act.

## CC(C)c1nc2c(Cl)cccn2c1N [Compound 14]
Nurr1 [1]
  max. activation: < 1.2 fold
Nurr1 [1]; at 100 µM
  EC50(Nurr1) (max. activation): inactive

## COc1ccc(-c2ccc(C(=O)Nc3c(C)nc4c(Cl)cccn34)o2)cc1 [Compound 34]
Nurr1 [1]
  EC50: 0.16 ± 0.06 µM
  max. activation: 1.7±0.1 fold

## Cc1cc(N)c2cccc(Cl)c2n1 [Compound 4, 8-chloro-2-methylquinolin-4-amine]
Nurr1 [2]
  ligand efficiency (LE): 0.50
  lipophilic ligand efficiency (LLE): 1.99
  size-independent ligand eff. (SILE): 2.21
Nurr1 [1]
  EC50: 17 ± 6 µM
  max. activation: 1.7±0.1 fold
